The values below come from patent US20250051383A1, “NOVEL FEAZD, NIAZD, AND CUAZD COMPLEXES INCORPORATING 1-(2-HYDROXYPHENYLAZO)-2-NAPHTHOL (H2AZD) FOR BIOLOGICAL APPLICATIONS” (KING FAISAL UNIVERSITY, priority 2023, published 2025).

Each structure is given as a SMILES string. In brackets after ≈: the same amount, converted by molar mass. Where two headings read alike, the source gives them in different places.

Holding throughout (type): cell-based
The test system of assay [1] is Candida albicans. Description: MIC by repeated dilution. The text has this:
(§1) The MIC, or the lowest concentration of a drug that can inhibit the development of bacteria or fungi, is often used as a starting point in larger preclinical studies of new antibacterial medications. The MIC value was obtained by repeatedly diluting a sample until the desired concentration was reached.

Assay [2] relates to Staphylococcus aureus (+ve). Nature of the assay: MIC by repeated dilution.
From the text: as §1

The subject of assay [3] is Aspergillus flavus. Nature of the assay: MIC by repeated dilution.
From the text: as §1

The test system of assay [4] is Pseudomonas aeruginosa (−ve). Nature of the assay: MIC by repeated dilution.
From the text: as §1

Assay [5] deals with Escherichia coli (−ve). Nature of the assay: MIC by repeated dilution.
From the text: as §1

Assay [6] concerns Trichophyton rubrum. Nature of the assay: MIC by repeated dilution.
From the text: as §1

In assay [7] the test system is Bacillus cereus (+ve). Description: MIC by repeated dilution.
From the text: as §1

In assay [8] the test system is Candida albicans. Nature of the assay: Disc diffusion, inhibition zone and activity index vs chloramphenicol. Particulars: for activity index (%): IZ of test compound/IZ of standard ×100; for inhibition zone (IZ): disc diffusion. The procedure: (§2) The in vitro antibacterial and antifungal activity of the components was assessed using a series of bacteria (Pseudomonas aeruginosa (−ve), Staphylococcus aureus (+ve), Escherichia coli (−ve), and Bacillus cereus (+ve)) and fungi (Trichophyton rubrum, Aspergillus flavus, and Candida albicans). The disc diffusion method was used to perform the in vitro antimicrobial activity tests. The biological activity of each compound was determined by examining its impact on the size of the inhibition zone, which is a measure of the compound's effectiveness in inhibiting the growth of microorganisms. The inhibitory zone (IZ) surrounding the disc was measured in millimeters. The activity of the current compounds was compared to that of the standard antibiotic chloramphenicol, and the % Activity Index (%=IZ of test compound/IZ of Standard)×100, was evaluated.

For assay [9], the system named is Staphylococcus aureus (+ve). The assay is described as above. Particulars: for activity index (%): IZ of test compound/IZ of standard chloramphenicol ×100; for inhibition zone (IZ): disc diffusion. The protocol:
as §2

Assay [10] relates to Aspergillus flavus. The assay is described as above. Particulars: for activity index (%): IZ of test compound/IZ of standard ×100; for inhibition zone (IZ): disc diffusion. The procedure: as §2
The subject of assay [11] is Trichophyton rubrum. Described as above. Particulars: for activity index (%): IZ of test compound/IZ of standard ×100; for inhibition zone (IZ): disc diffusion. The procedure:
as §2

Assay [12] deals with Bacillus cereus (+ve). The description is as above. The conditions noted are these: for activity index (%): IZ of test compound/IZ of standard chloramphenicol ×100; for inhibition zone (IZ): disc diffusion. The protocol: as §2
In assay [13] the test system is Pseudomonas aeruginosa (−ve). The assay is described as above. Particulars: for inhibition zone (IZ): disc diffusion; for activity index (%): IZ of test compound/IZ of standard chloramphenicol ×100. More on the design: activity index (%): concentration or dose not given beside the values. The procedure: as §2
Assay [14] has as its system Escherichia coli (−ve). The description is as above. More on the design: activity index (%): concentration or dose not given beside the values. Particulars: for inhibition zone (IZ): disc diffusion; for activity index (%): IZ of test compound/IZ of standard chloramphenicol ×100. The protocol:
as §2

A further assay deals with bacteria or fungi. Nature of the assay: MIC by repeated dilution, summary over the tested bacteria and fungi.
From the text: as §1

With `O.O.O.c1ccc2c(c1)N=Nc1c(ccc3ccccc13)[O][Cu][O]2` [CuAZD], the MIC came out at 6.25 ppm in the assay on Candida albicans [1]; 6.25 ppm in [2]; 6.25 ppm against Aspergillus flavus [3]; 6.25 ppm in assay [4]; 3.125 ppm in the assay on Escherichia coli (−ve) [5]; 6.25 ppm in the assay on Trichophyton rubrum [6]. This molecule also yielded an MIC in the assay with Bacillus cereus (+ve) [7] of 6.25 ppm. Also, the “activity index (%)” value with Candida albicans [8] was 61.90%; in [9], 77.78%; in the assay on Aspergillus flavus [10], 63.16%; with Trichophyton rubrum [11], 59.09%; with Bacillus cereus (+ve) [12], 72.22%. Also, the “inhibition zone (IZ)” value is listed as 13 mm in the assay with Candida albicans [8]; 14 mm in assay [9]; 12 mm with Aspergillus flavus [10]; 13 mm with Trichophyton rubrum [11]; 13 mm in the assay with Bacillus cereus (+ve) [12]; 13 mm in assay [13]. The “inhibition zone (IZ)” value in the assay on Escherichia coli (−ve) [14] was 13 mm.
Consider `O.O.[Cl][Fe]1[O]c2ccccc2N=Nc2c(ccc3ccccc23)[O]1` [FeAZD], for which the MIC in the assay on Candida albicans [1] is listed as 6.25 ppm; in assay [2], 6.25 ppm; with Aspergillus flavus [3], 6.25 ppm; in assay [4], 12.5 ppm; against Escherichia coli (−ve) [5], 6.25 ppm; with Trichophyton rubrum [6] it was 6.25 ppm. This molecule also displayed an MIC against Bacillus cereus (+ve) [7] of 6.25 ppm. In addition, the “activity index (%)” value in the assay on Candida albicans [8] was 57.14%; in assay [9] it was 72.22%; with Aspergillus flavus [10] it was 52.63%; in the assay on Trichophyton rubrum [11], 50.00%; in the assay on Bacillus cereus (+ve) [12] it was 66.67%; in assay [13] it was 61.11%. For the same molecule, the “activity index (%)” value in the assay with Escherichia coli (−ve) [14] turned out to be 60.00%. Moreover, the “inhibition zone (IZ)” value in the assay on Candida albicans [8] came out at 12 mm; in [9], 13 mm; in the assay with Aspergillus flavus [10] it was 10 mm; with Trichophyton rubrum [11], 11 mm; with Bacillus cereus (+ve) [12], 12 mm; in [13] it was 11 mm. Further, the “inhibition zone (IZ)” value in the assay on Escherichia coli (−ve) [14] was 12 mm.
Take `Oc1ccccc1N=Nc1c(O)ccc2ccccc12` [H2AZD, 1-(2-hydroxyphenylazo)-2-naphthol]: the MIC was approximately 50 µg/mL (≈ 189 µM) in the assay on bacteria or fungi; 50 µg/mL (≈ 189 µM) with Candida albicans [1] (read-out: MIC); 50 µg/mL (≈ 189 µM) in assay [2] (read-out: MIC); 50 µg/mL (≈ 189 µM) in the assay on Aspergillus flavus [3] (read-out: MIC); 50 µg/mL (≈ 189 µM) in [4] (read-out: MIC); 50 µg/mL (≈ 189 µM) in the assay with Escherichia coli (−ve) [5] (read-out: MIC). Besides, the MIC with Trichophyton rubrum [6] (read-out: MIC) and in the assay with Bacillus cereus (+ve) [7] (read-out: MIC) was 50 µg/mL (≈ 189 µM) in each case. Further, the “activity index (%)” value in the assay with Candida albicans [8] was determined as 38.10%; in [9], 50.00%; with Aspergillus flavus [10], 42.11%; with Trichophyton rubrum [11], 31.82%; with Bacillus cereus (+ve) [12] it was 44.44%; in assay [13], 44.44%. For the same molecule, in the assay on Escherichia coli (−ve) [14], the “activity index (%)” value is recorded as 40.00%. Also, the “inhibition zone (IZ)” value stood at 8 mm with Candida albicans [8]; 9 mm in assay [9]; 8 mm in the assay on Aspergillus flavus [10]; 7 mm in the assay on Trichophyton rubrum [11]; 8 mm in the assay on Bacillus cereus (+ve) [12]; 8 mm in assay [13]. For the same molecule, the “inhibition zone (IZ)” value in the assay with Escherichia coli (−ve) [14] worked out at 8 mm.
Regarding `O.c1ccc2c(c1)N=Nc1c(ccc3ccccc13)[O][Ni][O]2` [NiAZD], the MIC came out at 6.25 ppm in the assay on Candida albicans [1]; 6.25 ppm in assay [2]; 6.25 ppm with Aspergillus flavus [3]; 12.5 ppm in assay [4]; 6.25 ppm in the assay with Escherichia coli (−ve) [5]; 6.25 ppm with Trichophyton rubrum [6]. The MIC with Bacillus cereus (+ve) [7] came to 6.25 ppm. Also, the “activity index (%)” value in the assay on Candida albicans [8] is reported as 52.38%; in [9], 72.22%; with Aspergillus flavus [10] it was 52.63%; in the assay on Trichophyton rubrum [11] it was 45.45%; in the assay with Bacillus cereus (+ve) [12] it was 61.11%; in [13], 61.11%. In the assay with Escherichia coli (−ve) [14], the “activity index (%)” value was determined as 55.00%. For the same molecule, the “inhibition zone (IZ)” value in the assay with Candida albicans [8] was 11 mm; in [9], 13 mm; in the assay with Aspergillus flavus [10], 10 mm; in the assay with Trichophyton rubrum [11] it was 10 mm; with Bacillus cereus (+ve) [12] it was 11 mm; in assay [13], 11 mm. The “inhibition zone (IZ)” value with Escherichia coli (−ve) [14] is recorded as 11 mm.
